Data published in patent US20240207292A1, “BORONIC ACID COMPOUNDS, COMPOSITIONS AND METHODS” (Trustees of Tufts College, priority 2021, published 2024).
Read-outs that look alike come from different tables or passages of the source. Square brackets hold non-standard residues; d marks the D form. Peptide text beside a SMILES is read from it. * marks the point of attachment. X1 = O=C1CN2CCN3CCN(CC(=O)*)CCN(CC2)CC(=O)O[CH2][Lu]([CH2]CO1)[CH2]COC(=O)C3; boroPro = OB(O)[C@@H]1CCCN1*

Assays:
[1] = Radiochemical purity over time at room temperature (radio-HPLC); type: physicochemical
Description: The labeling efficiency was analyzed by instant thin layer chromatography (iTLC) and was typically >98%. For iTLC analysis, 1 μL of diluted labeling solution was applied to a strip of iTLC-SA chromatography paper (Agilent P/N A120B12, 114×2.5 mm) and developed in 0.1M citrate buffer (8 cm solvent migration) to assess free ^177Lu (Rf>0.5) and [^177Lu]-6555 (Rf˜0). The iTLC strips were analyzed using an Eckert & Ziegler AR-2000 Radio-TLC Imaging Scanner. The radiochemical purity was analyzed by high performance chromatography (HPLC) and was typically >90%. Briefly, the product was analyzed using a Phenomenex Luna 3.0 μm C18(2), 100 Å, 150 mm×4.6 mm column. Eluent A: 50 mM ammonium acetate in water, eluent B: acetonitrile. Gradient: 2% B from 0-5 min; 2% to 26% B from 5-20 min; 26% to 98% B from 20-25 min; 98% to 2% B from 25-26 min; 2% B from 26-30 min. Flow rate: 1.0 mL/min, Radio-HPLC detector: NaI (Eckert & Zeigler FC-1000), UV: 215 nm. The radiochemical purity remained >90% for three days at room temperature.
(§1) The above depicted radiopharmaceutical [^177Lu]-6952 can be prepared as described in Example 20 using the radiochemical precursor 6952 (Example 21 above). The labeling efficiency was analyzed by instant thin layer chromatography (iTLC) and was typically >98%. […] The iTLC strips were analyzed using an Eckert & Ziegler AR-2000 Radio-TLC Imaging Scanner. The radiochemical purity was analyzed by high performance chromatography (HPLC) and was typically >90%. Briefly, the product was analyzed using a Phenomenex Luna 3.0 μm C18(2), 100A, 150 mm×4.6 mm column. […]
as §1, with “The” for “The above depicted radiopharmaceutical [^177Lu]-6952 can be prepared as described in Example 20 using the radiochemical precursor 6952 (Example 21 above). The”, “>95%.” for “>98%.”, “>95%.” for “>90%.”
The labeling efficiency was analyzed by instant thin layer chromatography (iTLC) and was typically >95%. […]

[2] = test system: HEK-mFAP tumor xenografts; test: Efficacy and survival study, single injection of [^177Lu]-6522; type: in vivo, Fox Chase SCID mice
Description: The aim of the study was to assess the therapeutic efficacy of a single injection of [^177Lu]-6522 by evaluation tumor growth delay and median survival.
[^177Lu]-6522 is provided as described in Example 24 above. The following treatment compositions were prepared: • 1. Vehicle (selected formulation, 100 μL) • 2. Precursor (6522 compound) (80 μL) • 3. [.^77Lu]-6522 15 MBq (80 μL) • 4. [.^77Lu]-6522 30 MBq (80 μL) • 5. [.^77Lu]-6522 60 MBq (80 μL)
A total of 30 HEK-mFAP tumor-bearing mice were used for the study. […]
Mouse health checks were performed throughout the study on a weekly basis including body weight measurements. Tumor growth was monitored weekly with caliper measurements (tumor volume=length×width^2×0.5). […]. Mice were housed 5 to a cage with ad libitum access to food and water in 20° C. ambient temperature, 40%-50% humidity, and 12-hour light/12-hour dark cycle.
The mice were randomized into 5 groups, n=6 mice per group. The treatment compositions (1 through 5 above) were injected IV through the tail vein using a catheter (mounted with a 30 Ga needle). Injected doses were determined using a well counter (Capintec calibration). Tumor growth was monitored weekly with caliper measurements, and the mice were followed for survival.

[3] = test system: HEK-mFAP tumor xenografts
[4] = for three days at room temperature, formulation with N-acetyl methionine

Question: With `C[C@@H](NC(=O)c1ccc(CNC(=O)CN2CCN3CCN4CCN(CC2)CC(=O)O[CH2][Ga]([CH2]COC(=O)C3)[CH2]COC(=O)C4)cc1)C(=O)N1CCC[C@H]1B(O)O` [[^68Ga]-6555] as the compound, how does the radiochemical purity remained ([1]; for 4 hours at room temperature) read?
Answer: > 95%

Question: With `CC(C)[C@H](NC(=O)CNC(=O)CNC(=O)CN1CCN2CCN3CCN(CC1)CC(=O)O[CH2][Lu]([CH2]COC(=O)C2)[CH2]COC(=O)C3)C(=O)N[C@H](C)C(=O)N1CCC[C@H]1B(O)O` [[^177Lu]-6522] (X1-GGV[dA]-boroPro) as the compound, how does the survival benefit ([2]; 15 and 30 MBq groups) read?
Answer: did not translate in a survival benefit

Question: What about the tumor growth delay ([2]; 15 and 30 MBq groups) of the same compound?
Answer: tumor growth delay was observed

Question: What about the “survival benefit compared to the vehicle or precursor group” value ([2]; 60 MBq single IV injection) of the same compound?
Answer: statically significant survival benefit

Question: And the kidneys uptake ([3]; 4 h p.i., IV)?
Answer: 2.35 ± 0.51 % ID/g

Question: And the tumor uptake ([3]; 4 h p.i., IV, HEK-mFAP tumor-bearing mice)?
Answer: 33.04 ± 5.29 % ID/g

Question: And the “Blood uptake, Mean (% ID/g)” value ([3]; 4 h p.i., IV)?
Answer: 0.3063 % ID/g

Question: And the “Blood uptake, Mean (% ID/g)” value ([3]; 24 h p.i., IV)?
Answer: 0.0085 % ID/g

Question: And the “Blood uptake, Mean (% ID/g)” value ([3]; 48 h p.i., IV)?
Answer: 0.0029 % ID/g

Question: What about the “Blood uptake, Mean (% ID/g)” value ([3]; 168 h p.i., IV) of the same compound?
Answer: 0.0015 % ID/g

Question: What about the “Bone uptake, Mean (% ID/g)” value ([3]; 4 h p.i., IV) of the same compound?
Answer: 1.8037 % ID/g

Question: And the “Bone uptake, Mean (% ID/g)” value ([3]; 24 h p.i., IV)?
Answer: 0.2658 % ID/g

Question: What about the “Bone uptake, Mean (% ID/g)” value ([3]; 48 h p.i., IV) of the same compound?
Answer: 0.4106 % ID/g

Question: What about the “Bone uptake, Mean (% ID/g)” value ([3]; 168 h p.i., IV) of the same compound?
Answer: 0.3959 % ID/g

Question: What about the “Brain uptake, Mean (% ID/g)” value ([3]; 4 h p.i., IV) of the same compound?
Answer: 0.0281 % ID/g

Question: What about the “Brain uptake, Mean (% ID/g)” value ([3]; 24 h p.i., IV) of the same compound?
Answer: 0.0036 % ID/g

Question: What about the “Brain uptake, Mean (% ID/g)” value ([3]; 48 h p.i., IV) of the same compound?
Answer: 0.0033 % ID/g

Question: What about the “Brain uptake, Mean (% ID/g)” value ([3]; 168 h p.i., IV) of the same compound?
Answer: 0.0020 % ID/g

Question: What about the “Heart uptake, Mean (% ID/g)” value ([3]; 4 h p.i., IV) of the same compound?
Answer: 0.1528 % ID/g

Question: And the “Heart uptake, Mean (% ID/g)” value ([3]; 24 h p.i., IV)?
Answer: 0.0332 % ID/g

Question: And the “Heart uptake, Mean (% ID/g)” value ([3]; 48 h p.i., IV)?
Answer: 0.0311 % ID/g

Question: What about the “Heart uptake, Mean (% ID/g)” value ([3]; 168 h p.i., IV) of the same compound?
Answer: 0.0256 % ID/g

Question: What about the “Kidneys uptake, Mean (% ID/g)” value ([3]; 4 h p.i., IV) of the same compound?
Answer: 2.3525 % ID/g

Question: And the “Kidneys uptake, Mean (% ID/g)” value ([3]; 24 h p.i., IV)?
Answer: 0.9585 % ID/g

Question: What about the “Kidneys uptake, Mean (% ID/g)” value ([3]; 48 h p.i., IV) of the same compound?
Answer: 0.5318 % ID/g

Question: And the “Kidneys uptake, Mean (% ID/g)” value ([3]; 168 h p.i., IV)?
Answer: 0.1670 % ID/g

Question: And the “Liver uptake, Mean (% ID/g)” value ([3]; 4 h p.i., IV)?
Answer: 0.3774 % ID/g

Question: And the “Liver uptake, Mean (% ID/g)” value ([3]; 24 h p.i., IV)?
Answer: 0.1585 % ID/g

Question: And the “Liver uptake, Mean (% ID/g)” value ([3]; 48 h p.i., IV)?
Answer: 0.1237 % ID/g

Question: And the “Liver uptake, Mean (% ID/g)” value ([3]; 168 h p.i., IV)?
Answer: 0.0725 % ID/g

Question: And the “Lung uptake, Mean (% ID/g)” value ([3]; 4 h p.i., IV)?
Answer: 0.3331 % ID/g

Question: What about the “Lung uptake, Mean (% ID/g)” value ([3]; 24 h p.i., IV) of the same compound?
Answer: 0.0306 % ID/g

Question: What about the “Lung uptake, Mean (% ID/g)” value ([3]; 48 h p.i., IV) of the same compound?
Answer: 0.0312 % ID/g

Question: What about the “Lung uptake, Mean (% ID/g)” value ([3]; 168 h p.i., IV) of the same compound?
Answer: 0.0257 % ID/g

Question: What about the “Muscle uptake, Mean (% ID/g)” value ([3]; 4 h p.i., IV) of the same compound?
Answer: 0.4649 % ID/g

Question: What about the “Muscle uptake, Mean (% ID/g)” value ([3]; 24 h p.i., IV) of the same compound?
Answer: 0.0315 % ID/g

Question: And the “Muscle uptake, Mean (% ID/g)” value ([3]; 48 h p.i., IV)?
Answer: 0.0518 % ID/g

Question: And the “Muscle uptake, Mean (% ID/g)” value ([3]; 168 h p.i., IV)?
Answer: 0.0604 % ID/g

Question: And the “Pancreas uptake, Mean (% ID/g)” value ([3]; 4 h p.i., IV)?
Answer: 0.2167 % ID/g

Question: And the “Pancreas uptake, Mean (% ID/g)” value ([3]; 24 h p.i., IV)?
Answer: 0.0347 % ID/g

Question: And the “Pancreas uptake, Mean (% ID/g)” value ([3]; 48 h p.i., IV)?
Answer: 0.0275 % ID/g

Question: What about the “Pancreas uptake, Mean (% ID/g)” value ([3]; 168 h p.i., IV) of the same compound?
Answer: 0.0197 % ID/g

Question: What about the “Skin uptake, Mean (% ID/g)” value ([3]; 4 h p.i., IV) of the same compound?
Answer: 0.9769 % ID/g

Question: And the “Skin uptake, Mean (% ID/g)” value ([3]; 24 h p.i., IV)?
Answer: 0.1158 % ID/g

Question: What about the “Skin uptake, Mean (% ID/g)” value ([3]; 48 h p.i., IV) of the same compound?
Answer: 0.0906 % ID/g

Question: And the “Skin uptake, Mean (% ID/g)” value ([3]; 168 h p.i., IV)?
Answer: 0.0837 % ID/g

Question: And the “Small intestine uptake, Mean (% ID/g)” value ([3]; 4 h p.i., IV)?
Answer: 0.2091 % ID/g

Question: What about the “Small intestine uptake, Mean (% ID/g)” value ([3]; 24 h p.i., IV) of the same compound?
Answer: 0.0580 % ID/g

Question: What about the “Small intestine uptake, Mean (% ID/g)” value ([3]; 48 h p.i., IV) of the same compound?
Answer: 0.0499 % ID/g

Question: And the “Small intestine uptake, Mean (% ID/g)” value ([3]; 168 h p.i., IV)?
Answer: 0.0277 % ID/g

Question: What about the “Spleen uptake, Mean (% ID/g)” value ([3]; 4 h p.i., IV) of the same compound?
Answer: 0.2587 % ID/g

Question: What about the “Spleen uptake, Mean (% ID/g)” value ([3]; 24 h p.i., IV) of the same compound?
Answer: 0.1418 % ID/g

Question: And the “Spleen uptake, Mean (% ID/g)” value ([3]; 48 h p.i., IV)?
Answer: 0.1340 % ID/g

Question: And the “Spleen uptake, Mean (% ID/g)” value ([3]; 168 h p.i., IV)?
Answer: 0.1437 % ID/g

Question: And the “Stomach uptake, Mean (% ID/g)” value ([3]; 4 h p.i., IV)?
Answer: 0.1706 % ID/g

Question: And the “Stomach uptake, Mean (% ID/g)” value ([3]; 24 h p.i., IV)?
Answer: 0.0528 % ID/g

Question: And the “Stomach uptake, Mean (% ID/g)” value ([3]; 48 h p.i., IV)?
Answer: 0.0331 % ID/g

Question: What about the “Stomach uptake, Mean (% ID/g)” value ([3]; 168 h p.i., IV) of the same compound?
Answer: 0.0210 % ID/g

Question: And the “Tumor uptake, Mean (% ID/g)” value ([3]; 4 h p.i., IV)?
Answer: 33.0435 % ID/g

Question: And the “Tumor uptake, Mean (% ID/g)” value ([3]; 24 h p.i., IV)?
Answer: 12.9944 % ID/g

Question: And the “Tumor uptake, Mean (% ID/g)” value ([3]; 48 h p.i., IV)?
Answer: 7.6749 % ID/g

Question: What about the “Tumor uptake, Mean (% ID/g)” value ([3]; 168 h p.i., IV) of the same compound?
Answer: 3.9910 % ID/g

Question: What about the kidneys uptake ([3]; day 7 p.i., IV) of the same compound?
Answer: 0.17 ± 0.02 % ID/g

Question: What about the “localization in tumor and normal tissue” value ([3]; up to 168 h p.i.) of the same compound?
Answer: high localization in tumor xenografts and low normal tissue uptake

Question: With `C[C@@H](NC(=O)c1ccc(CNC(=O)CN2CCN3CCN4CCN(CC2)CC(=O)O[CH2][Lu]([CH2]COC(=O)C3)[CH2]COC(=O)C4)cc1)C(=O)N1CCC[C@H]1B(O)O` [[^177Lu]-6555] as the compound, how does the radiochemical purity remained [1, 4] read?
Answer: > 90%

Question: Which radiochemical purity remained [1, 4] does the source give for `C[C@@H](NC(=O)[C@H]1CC[C@H](CNC(=O)CN2CCN3CCN4CCN(CC2)CC(=O)O[CH2][Lu]([CH2]COC(=O)C3)[CH2]COC(=O)C4)CC1)C(=O)N1CCC[C@H]1B(O)O` [[^177Lu]-6952] here?
Answer: > 90%
